According to patent US20130303509A1, “NAMPT INHIBITORS” (AbbVie Inc., priority 2012, published 2013):

These compounds were tested on PC3 cells (assay: NAMPT Cell Proliferation Assay). Settings: Homo sapiens, PC-3, 120 h, 5 days incubation, cell viability by Cell Titer Glo.
Assay type: cell-based
How it was run: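 Seeded at 500 cells/well in RPMI with 10% heat-inactivated FBS and left to attach overnight at 37° C, 5% CO2. Compounds were added as 10-fold dilutions […] for 5 days, then viability was read by CellTiter-Glo. IC50s came from sigmoidal fits of percent inhibition.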

SMILES | IC50 [nM]
O=C(Nc1ccc(OC2CCN(C(=O)c3ccc(Cl)cc3)CC2)cc1)C1CN(c2cccnn2)C1 [Example 245, N-(4-{[1-(4-chlorobenzoyl)piperidin-4-yl]oxy}phenyl)-1-(pyridazin-3-yl)azetidine-3-carboxamide] | 7.06
CC(C)CC(=O)N1CCC(S(=O)(=O)c2ccc(NC(=O)C3CN(c4cccnn4)C3)cc2)CC1 [Example 597, N-(4-{[1-(3-methylbutanoyl)piperidin-4-yl]sulfonyl}phenyl)-1-(pyridazin-3-yl)azetidine-3-carboxamide] | 117
Cc1ccc(N2CC[C@H](C(=O)Nc3ccc(OC4CCN(C(=O)c5ccccc5F)CC4)cc3)C2)nn1 [Example 836, (3S)—N-(4-{[1-(2-fluorobenzoyl)piperidin-4-yl]oxy}phenyl)-1-(6-methylpyridazin-3-yl)pyrrolidine-3-carboxamide] | 658
O=C(N[C@H]1CCN(c2cccnn2)C1)c1ccc(C2CCN(C(=O)c3cscn3)CC2)s1 [Example 768, N-[(3S)-1-(pyridazin-3-yl)pyrrolidin-3-yl]-5-[1-(1,3-thiazol-4-ylcarbonyl)piperidin-4-yl]thiophene-2-carboxamide] | 111
O=C1CC[C@H](C(=O)N2CCC(c3ccc(NC(=O)C4CN(c5cccnc5)C4)cc3)CC2)N1 [Example 106, N-{4-[1-(5-oxo D-prolyl)piperidin-4-yl]phenyl}-1-(pyridin-3-yl)azetidine-3-carboxamide] | 61.8
Cc1cc(N2CC(C(=O)Nc3ccc(C4CCN(C(=O)c5ccccc5)CC4)cc3)C2)cnc1F [Example 665, N-[4-(1-benzoylpiperidin-4-yl)phenyl]-1-(6-fluoro-5-methylpyridin-3-yl)azetidine-3-carboxamide] | 7620
O=C(Nc1ccc(S(=O)(=O)C2CCN(C(=O)c3ccccc3)CC2)cc1)C1CN(c2ccnnc2)C1 [Example 615, N-{4-[(1-benzoylpiperidin-4-yl)sulfonyl]phenyl}-1-(pyridazin-4-yl)azetidine-3-carboxamide] | 6150
O=C(Nc1ccc(C2CCN(C(=O)C3CCCO3)CC2)cc1)C1CN(c2ccnnc2)C1 (centres unmarked) [Example 538, 1-(pyridazin-4-yl)-N-{4-[1-(tetrahydrofuran-2-ylcarbonyl)piperidin-4-yl]phenyl}azetidine-3-carboxamide] | 13.7
CCCCC(=O)N1CCC(Oc2ccc(NC(=O)C3CN(c4cccnc4)C3)cc2)CC1 [Example 34, N-{4-[(1-pentanoylpiperidin-4-yl)oxy]phenyl}-1-(pyridin-3-yl)azetidine-3-carboxamide] | 6.8
O=C(Nc1ccc(C2CCN(C(=O)Cc3ccc(C(F)(F)F)cc3)CC2)cc1)C1CN(c2cccnn2)C1 [Example 371, 1-(pyridazin-3-yl)-N-[4-(1-{[4-(trifluoromethyl)phenyl]acetyl}piperidin-4-yl)phenyl]azetidine-3-carboxamide] | 8.94
O=C(Nc1ccc(OC2CCN(C(=O)c3cccc(Cl)c3)CC2)cc1)C1CN(c2cccnn2)C1 [Example 250, N-(4-{[1-(3-chlorobenzoyl)piperidin-4-yl]oxy}phenyl)-1-(pyridazin-3-yl)azetidine-3-carboxamide] | 9.11
Cc1ncccc1N1CC[C@H](C(=O)Nc2ccc(C3CCN(C(=O)c4ccccc4F)CC3)cc2)C1 [Example 744, (3S)—N-{4-[1-(2-fluorobenzoyl)piperidin-4-yl]phenyl}-1-(2-methylpyridin-3-yl)pyrrolidine-3-carboxamide] | 2720
Cc1ccc(C(=O)N2CCC(c3ccc(NC(=O)[C@H]4CCN(c5cccnn5)C4)cc3)CC2)cc1F [Example 719, (3S)-N-{4-[1-(3-fluoro-4-methylbenzoyl)piperidin-4-yl]phenyl}-1-(pyridazin-3-yl)pyrrolidine-3-carboxamide] | 9.63
O=C(Nc1ccc(OC2CCN(C(=O)[C@@H]3CCCO3)CC2)cc1)C1CN(c2cccnc2)C1 [Example 33, 1-(pyridin-3-yl)-N-[4-({1-[(2S)-tetrahydrofuran-2-ylcarbonyl]piperidin-4-yl}oxy)phenyl]azetidine-3-carboxamide] | 3.66
CC[C@H](C)C(=O)N1CCC(Oc2ccc(NC(=O)[C@H]3CCN(c4cccnc4)C3)cc2)CC1 [Example 19, (3S)-N-[4-({1-[(2S)-2-methylbutanoyl]piperidin-4-yl}oxy)phenyl]-1-(pyridin-3-yl)pyrrolidine-3-carboxamide] | 56.4
CC(C)CN1CCC(c2ccc(NC(=O)C3CN(c4cccnc4)C3)cc2)CC1 [Example 94, N-{4-[1-(2-methylpropyl)piperidin-4-yl]phenyl}-1-(pyridin-3-yl)azetidine-3-carboxamide] | 65.7
CC(C)C(=O)N1CCC(c2ccc(NC(=O)C3CN(c4ccnnc4)C3)cc2)CC1 [Example 528, N-{4-[1-(2-methylpropanoyl)piperidin-4-yl]phenyl}-1-(pyridazin-4-yl)azetidine-3-carboxamide] | 19.2
O=C(Nc1ccc(O[C@@H]2CCN(C(=O)c3cc(F)cc(F)c3)C2)cc1)C1CN(c2cccnn2)C1 [Example 516, N-(4-{[(3R)-1-(3,5-difluorobenzoyl)pyrrolidin-3-yl]oxy}phenyl)-1-(pyridazin-3-yl)azetidine-3-carboxamide] | 2.26

SMILES | IC50 [nM]
CC(C)(C)CC(=O)N1CCC(c2ccc(NC(=O)C3CN(c4ccnnc4)C3)cc2)CC1 [Example 140, N-{4-[1-(3,3-dimethylbutanoyl)piperidin-4-yl]phenyl}-1-(pyridazin-4-yl)azetidine-3-carboxamide] | 3.54
O=C(Nc1ccc(C2CCN(C(=O)c3ccccc3)CC2)cc1)C1CCN(c2cccnn2)CC1 [Example 626, N-[4-(1-benzoylpiperidin-4-yl)phenyl]-1-(pyridazin-3-yl)piperidine-4-carboxamide] | 5220
O=C(Nc1ccc(C2CCN(C(=O)c3ccco3)CC2)cc1)C1CN(c2cccnn2)C1 [Example 436, N-{4-[1-(furan-2-ylcarbonyl)piperidin-4-yl]phenyl}-1-(pyridazin-3-yl)azetidine-3-carboxamide] | 0.67
CCCC(=O)N1CCC(c2ccc(NC(=O)C3CN(c4cccnn4)C3)cc2)CC1 [Example 317, N-[4-(1-butanoylpiperidin-4-yl)phenyl]-1-(pyridazin-3-yl)azetidine-3-carboxamide] | 1.83
COCCOCC(=O)N1CCC(c2ccc(NC(=O)C3CN(c4cccnc4C)C3)cc2)CC1 [Example 183, N-(4-{1-[(2-methoxyethoxy)acetyl]piperidin-4-yl}phenyl)-1-(2-methylpyridin-3-yl)azetidine-3-carboxamide] | 346
O=C(Nc1ccc(C2CCN(C(=O)Cc3ccc(F)cc3)CC2)cc1)C1CN(c2ccnnc2)C1 [Example 531, N-(4-{1-[(4-fluorophenyl)acetyl]piperidin-4-yl}phenyl)-1-(pyridazin-4-yl)azetidine-3-carboxamide] | 17.6
CCC(C)(C)C(=O)N1CCC(c2ccc(NC(=O)[C@H]3CCN(c4cccnn4)C3)cc2)CC1 [Example 718, (3S)-N-{4-[1-(2,2-dimethylbutanoyl)piperidin-4-yl]phenyl}-1-(pyridazin-3-yl)pyrrolidine-3-carboxamide] | 6.27
O=C(Nc1ccc(C2CN(C(=O)c3cccc(F)c3)C2)cc1)[C@H]1CCN(c2cccnn2)C1 [Example 786, (3S)-N-{4-[1-(3-fluorobenzoyl)azetidin-3-yl]phenyl}-1-(pyridazin-3-yl)pyrrolidine-3-carboxamide] | 12
O=C(Nc1ccc(OC2CCN(C(=O)C(F)(F)c3ccccc3)CC2)cc1)C1CN(c2cccnn2)C1 [Example 215, N-[4-({1-[difluoro(phenyl)acetyl]piperidin-4-yl}oxy)phenyl]-1-(pyridazin-3-yl)azetidine-3-carboxamide] | 6.95
O=C(Nc1ccc(-c2cc(C3CC3)nn2CCO)cc1)C1CN(c2cccnn2)C1 [Example 817, N-{4-[3-cyclopropyl-1-(2-hydroxyethyl)-1H-pyrazol-5-yl]phenyl}-1-(pyridazin-3-yl)azetidine-3-carboxamide] | 64.1
O=C(Nc1ccc(C2CCN(C(=O)c3ccccc3)CC2)cc1F)C1CN(c2cccnn2)C1 [Example 829, N-[4-(1-benzoylpiperidin-4-yl)-2-fluorophenyl]-1-(pyridazin-3-yl)azetidine-3-carboxamide] | 2.95
O=C(Nc1ccc(C2CCN(C(=O)CN3CCCC3)CC2)cc1)C1CN(c2cccnc2)C1 [Example 105, 1-(pyridin-3-yl)-N-{4-[1-(pyrrolidin-1-ylacetyl)piperidin-4-yl]phenyl}azetidine-3-carboxamide] | 6.17
O=C(Nc1ccc(C2CCN(C(=O)CCCc3cccs3)CC2)cc1)C1CN(c2cccnn2)C1 [Example 415, 1-(pyridazin-3-yl)-N-(4-{1-[4-(thiophen-2-yl)butanoyl]piperidin-4-yl}phenyl)azetidine-3-carboxamide] | 2.28
O=C(Nc1ccc(C2CCN(C(=O)C3CCCC3)CC2)cc1)C1CN(c2cccnn2)C1 [Example 439, N-{4-[1-(cyclopentylcarbonyl)piperidin-4-yl]phenyl}-1-(pyridazin-3-yl)azetidine-3-carboxamide] | 3.36
COCC(=O)N1CC[C@@H](Oc2ccc(NC(=O)C3CN(c4cccnn4)C3)cc2)C1 [Example 510, N-(4-{[(3R)-1-(methoxyacetyl)pyrrolidin-3-yl]oxy}phenyl)-1-(pyridazin-3-yl)azetidine-3-carboxamide] | 66.4
CC(C)CCC(=O)N1CCC(c2ccc(NC(=O)C3CN(c4cccnc4)C3)cc2)CC1 [Example 116, N-{4-[1-(4-methylpentanoyl)piperidin-4-yl]phenyl}-1-(pyridin-3-yl)azetidine-3-carboxamide] | 0.64
O=C(N[C@H]1CCN(c2cccnn2)C1)c1ccc(C2CCN(C(=O)[C@H]3CCCO3)CC2)s1 [Example 766, N-[(3S)-1-(pyridazin-3-yl)pyrrolidin-3-yl]-5-{1-[(2R)-tetrahydrofuran-2-ylcarbonyl]piperidin-4-yl}thiophene-2-carboxamide] | 787
